Results as given in PubChem BioAssay (NCI).
Where “and” joins values, the source holds several entries; their conditions need not be identical. Equal values may be shown once.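 Method: 48-hour compound exposure of cells in 96-well plates, five concentrations, linear interpolation of endpoints. Abbreviation: GI50, concentration required for 50% inhibition of growth. TGI marks complete inhibition of growth.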

Tests used:
Experiment in all cases: inhibition of tumour cell growth, NCI panel, 48 h
HT29 colon = system: HT29 colon
K-562 leukemia = system: K-562 leukemia
MALME-3M melanoma = system: MALME-3M melanoma
MCF7 breast = system: MCF7 breast
MDA-MB-231 breast = system: MDA-MB-231 breast
MDA-MB-435 = system: MDA-MB-435
NCI-H226 lung = system: NCI-H226 lung
NCI-H522 lung = system: NCI-H522 lung
UACC-62 melanoma = system: UACC-62 melanoma
DU-145 prostate = system: DU-145 prostate

Row | Compound | TGI (HT29 colon) | TGI (K-562 leukemia) | TGI (MALME-3M melanoma) | TGI (MCF7 breast) | TGI (MDA-MB-231 breast) | TGI (MDA-MB-435) | TGI (NCI-H226 lung) | TGI (NCI-H522 lung) | TGI (UACC-62 melanoma) | GI50 (DU-145 prostate) | TGI (DU-145 prostate) | GI50 (K-562 leukemia) | GI50 (MDA-MB-231 breast) | GI50 (MDA-MB-435) | GI50 (NCI-H226 lung) | GI50 (NCI-H522 lung) | GI50 (UACC-62 melanoma) | GI50 (HT29 colon) | GI50 (MALME-3M melanoma) | GI50 (MCF7 breast)
1 | CC1(C)C(C#N)C1C1=C(N2CCOCC2)[C@]2(C)C(OC(=O)c3ccccc3)CC[C@@H]2C1 (some centres not stated) | > 100 µM | > 100 µM | > 100 µM | > 100 µM | > 100 µM | > 100 µM | > 100 µM | > 100 µM | > 100 µM |  |  |  |  |  |  |  |  |  |  | 
2 | COC(=O)C(C(=O)c1ccccc1)C(C(=O)C(=O)Nc1ccc(OC)cc1OC)C(=O)C(=O)c1ccc(C)cc1 (configuration not stated) | > 100 µM | > 100 µM | > 100 µM |  |  |  | > 100 µM | > 100 µM | > 100 µM |  |  |  |  |  |  |  |  |  |  | 
3 | c1ccc2cc(-c3cc4ccccc4s3)ccc2c1 | > 100 µM | > 100 µM | > 100 µM |  |  |  | > 100 µM | > 100 µM | > 100 µM |  |  |  |  |  |  |  |  |  |  | 
4 | CC(C)CCC1CC2C(=O)N(c3ccccc3)C(=O)C2c2[nH]c3ccccc3c21 (configuration not stated) | 11 µM | 10.7 µM | 15.1 µM |  |  |  | 12.4 µM |  | 20.9 µM |  |  |  |  |  |  |  |  |  |  | 
5 | CC1=C(C(=O)Nc2ccc(F)c(Cl)c2)C(c2ccccc2O)NC(=S)N1 (configuration not stated) |  | > 50 µM |  |  | > 50 µM | > 50 µM | > 50 µM | > 50 µM | > 50 µM | 17.3 µM | 45.7 µM | 22 µM | > 50 µM | 32.2 µM | > 50 µM | > 50 µM | > 50 µM |  |  | 
6 | O=[N+]([O-])c1cccc(C2=NN(c3ccccc3)C[N+](c3ccc(Br)cc3)=N2)c1 | > 100 µM | > 100 µM | > 100 µM |  |  |  |  | > 100 µM | > 100 µM |  |  |  |  |  |  |  |  |  |  | 
7 | O=C(Nc1ccn(CCO)c(=O)n1)c1ccccc1 | > 100 µM | > 100 µM | > 100 µM |  |  |  | > 100 µM | > 100 µM | > 100 µM |  |  |  |  |  |  |  |  |  |  | 
8 | CCCCCCCCCCCCCC(=O)OCC(C[As](=O)(O)O)OC(=O)CCCCCCCCCCCCC (configuration not stated) | > 100 µM | > 100 µM | > 100 µM |  |  |  | > 100 µM | > 100 µM | > 100 µM |  |  |  |  |  |  |  |  |  |  | 
9 | Cc1c2n(c(=O)[nH]c1=O)C1OC(CO)C(O2)C1O (configuration not stated) | > 100 µM | > 100 µM |  |  |  |  | > 100 µM | > 100 µM | > 100 µM |  |  |  |  |  |  |  |  |  |  | 
10 | N#CN/C(N)=N/CO | > 100 µM | > 100 µM | > 100 µM |  |  |  | > 100 µM | > 100 µM | > 100 µM |  |  |  |  |  |  |  |  |  |  | 
11 | O=c1/c(=C/c2ccccc2[N+](=O)[O-])sc2nnc(-c3ccco3)n12 | > 100 µM | > 100 µM | 47.1 µM |  |  |  | 61 µM | 32.9 µM | > 100 µM |  |  |  |  |  |  |  |  |  |  | 
12 | CCOC(=O)c1cnc2c(ccc3[nH]n(C)nc32)c1=O | > 100 µM | > 100 µM | > 100 µM |  |  |  | > 100 µM | > 100 µM | > 100 µM |  |  |  |  |  |  |  |  |  |  | 
13 | CC(=O)CCn1c(=S)sc2ccccc21 | > 100 µM |  |  | > 100 µM | > 100 µM | > 100 µM | > 100 µM | > 100 µM | > 100 µM |  | > 100 µM |  |  |  |  |  |  |  |  | 
14 | Cc1cc(C)c2c(n1)sc1c(Nc3ccc(Cl)cc3)ncnc12 | > 100 µM | > 100 µM | > 100 µM | > 100 µM |  | > 100 µM | 5.67 µM | > 100 µM |  | < 0.01 µM | > 100 µM | 0.0154 µM |  | < 0.01 µM | 0.0333 µM | < 0.01 µM | < 0.01 µM | < 0.0152 µM | 19.3 µM | < 0.01 µM
15 | O=C1CCC2(c3ccc(Cl)cc3)Nc3ncccc3N12 (configuration not stated) | > 100 µM | > 100 µM | > 100 µM |  |  |  | > 100 µM | > 100 µM | > 100 µM |  |  |  |  |  |  |  |  |  |  | 
16 | COc1cc(-c2oc(=O)ccc2C#Cc2ccccn2)cc(OC)c1OC | > 21 µM | > 100 µM | > 100 µM | > 100 µM | > 72.4 µM | 0.932 µM | > 100 µM |  | > 20.1 µM | 3.48 µM | > 29.5 µM | 0.646 µM | 3.57 µM | 0.171 µM | 7.76 µM |  | 1.82 µM | 0.607 µM | 14.9 µM | 0.798 µM
17 | Clc1ccc2c(c1)[nH]c1c2nc2ccccn21 | 45.4 µM and 28.9 µM | 74.8 µM and 37.3 µM | > 100 µM and 35.7 µM |  |  |  | 44.7 µM and 63.9 µM | 45.6 µM and 39.6 µM |  |  |  | 23.9 µM and 3.96 µM |  |  |  |  |  |  | > 100 µM and 17.5 µM | 
18 | CCC(=O)CC(=O)CCC(=O)Nc1cc(C)ccc1C | > 100 µM | > 100 µM | > 100 µM |  |  |  |  | > 100 µM | > 100 µM |  |  |  |  |  |  |  |  |  |  | 
19 | CC1(C)CC(=O)C(C=NC(=S)c2ccccc2)=C(O)C1 | > 100 µM |  |  | > 100 µM | > 100 µM | > 100 µM | > 100 µM | > 100 µM | > 100 µM |  | > 100 µM |  |  |  |  |  |  |  |  | 
20 | Cc1cc(Nc2ccc(NC(=O)c3ccc(Nc4ccnc5ccccc45)cc3)cc2)nc(N)n1 |  |  | 4.65 µM |  |  | > 100 µM | 5 µM |  | 5.84 µM | 2.03 µM | 5.16 µM |  |  | 2.93 µM | 2.42 µM |  | 2.33 µM |  | 2 µM | 
21 | COc1cc(Nc2ncccc2C(=O)NCc2cn(Cc3cccc(Oc4ccccc4)c3)nn2)cc(OC)c1 | > 100 µM | > 100 µM | > 100 µM |  | > 100 µM | 5.43 µM | > 100 µM | > 100 µM | > 100 µM | 10.5 µM | > 100 µM | 5.05 µM | 5.33 µM | 2.23 µM | 9.82 µM | 3.31 µM | 3.68 µM | 3.88 µM | 5.81 µM | 
22 | O=CCC1CCCCC1 |  | > 100 µM | > 100 µM |  | > 100 µM | > 100 µM | > 100 µM | > 100 µM |  |  |  |  |  |  |  |  |  |  |  | 
23 | CN1CC(=O)N2Cc3ccccc3-n3cccc3C2C1 (configuration not stated) | > 100 µM |  | > 100 µM |  |  |  |  |  | > 100 µM |  |  |  |  |  |  |  |  |  |  | 
24 | CCCCOC(=O)CNC(=O)OC/C=C/C#CC#C/C=C/COC(=O)NCC(=O)OCCCC | > 100 µM | > 100 µM | > 100 µM |  |  |  | > 10 µM | > 100 µM | > 100 µM |  |  | > 100 µM |  |  |  | > 100 µM | > 100 µM | > 100 µM | > 100 µM | 
25 | CC(=O)CCn1ncc(Cl)c(Cl)c1=O | 34.1 µM | 18.5 µM | 36.2 µM |  |  |  | 31.7 µM |  | 33.3 µM |  |  |  |  |  |  |  |  |  |  | 
26 | Nc1nc(Cl)cc(NCCCCCCCCNc2cc(Cl)nc(N)n2)n1 | > 100 µM | > 100 µM |  |  |  |  | 48.5 µM | 37.2 µM | 95.3 µM |  |  |  |  |  |  |  |  |  |  | 
